Species on record: Rattus norvegicus
Experiment: Open TG-GATES - Regimen: Single
Assay type: toxicity, organism-based, Sprague-Dawley
Design: regimen Single, gender Male, age 6 weeks
Settings: in vivo, po, 150 mg/kg, route gavage, dose level Middle; for APTT / Bas / Eos / Fbg / Hb / Ht / Lym / MCH / MCHC / MCV / Mono / Neu / PT / Plat / RBC / Ret / WBC: tissue Blood; for KIDNEY_L / KIDNEY_R / KIDNEY_TOTAL: tissue Kidney; for LIVER: tissue Liver; for A/G / ALP / ALT / AST / BUN / CRE / Ca / Cl / DBIL / GLC / IP / K / LDH / Na / PL / RALB / TBIL / TC / TG / TP / gamma-GTP: tissue Plasma

`CN1C(=O)OC(C)(C)C1=O` [TRIMETHADIONE] gave a TERMINAL_BW (3 h) of 208.1 g, an APTT (3 h) of 15.9 s and a Bas (3 h) of 0%. It also gave an Eos (3 h) of 0.6%, a Fbg (3 h) of 262.2 mg/dL and a Hb (3 h) of 13.4 g/dL. It also gave a Ht (3 h) of 40.4%, a Lym (3 h) of 78.8% and an MCH (3 h) of 21.4 pg. For the same compound, the MCHC (3 h) was 33.2%, the MCV (3 h) was 64.6 fL and the Mono (3 h) was 2.4%. It also gave a Neu (3 h) of 17.2%, a PT (3 h) of 13.5 s and a Plat (3 h) of 114.9 x10_4/uL. The RBC (3 h) was 625.4 x10_4/ul, the Ret (3 h) was 7.7% and the WBC (3 h) was 81.5 x10_2/uL. It also gave a KIDNEY_L (3 h) of 0.9 g, a KIDNEY_R (3 h) of 0.9 g and a KIDNEY_TOTAL (3 h) of 1.8 g. For the same compound, the LIVER (3 h) was 9.1 g, the A/G (3 h) was 0.9 and the ALP (3 h) was 1472.2 IU/L. The ALT (3 h) was 38.4 IU/L, the AST (3 h) was 70.6 IU/L and the BUN (3 h) was 10 mg/dL. The CRE (3 h) was 0.2 mg/dL, the Ca (3 h) was 10.6 mg/dL and the Cl (3 h) was 108 meq/L. The DBIL (3 h) was 0.004 mg/dL, the GLC (3 h) was 177.8 mg/dL and the IP (3 h) was 8.3 mg/dL. The K (3 h) was 4.2 meq/L, the LDH (3 h) was 106 IU/L and the Na (3 h) was 141 meq/L. The PL (3 h) was 144.4 mg/dL, the RALB (3 h) was 2.5 g/dL and the TBIL (3 h) was 0.056 mg/dL. It also gave a TC (3 h) of 75 mg/dL, a TG (3 h) of 82 mg/dL and a TP (3 h) of 5.3 g/dL. The gamma-GTP (3 h) was 1 IU/L, the TERMINAL_BW (6 h) was 209 g and the APTT (6 h) was 16.3 s. The Bas (6 h) was 0.2%, the Eos (6 h) was 1% and the Fbg (6 h) was 267 mg/dL. It also gave a Hb (6 h) of 13.4 g/dL, a Ht (6 h) of 40.1% and a Lym (6 h) of 80.8%. It also gave an MCH (6 h) of 21.7 pg, an MCHC (6 h) of 33.3% and an MCV (6 h) of 65.3 fL. The Mono (6 h) was 2.4%, the Neu (6 h) was 15.2% and the PT (6 h) was 13.8 s. For the same compound, the Plat (6 h) was 126.8 x10_4/uL, the RBC (6 h) was 614.2 x10_4/ul and the Ret (6 h) was 8.4%. For the same compound, the WBC (6 h) was 94.5 x10_2/uL, the KIDNEY_L (6 h) was 0.9 g and the KIDNEY_R (6 h) was 0.9 g. The KIDNEY_TOTAL (6 h) was 1.8 g, the LIVER (6 h) was 8.6 g and the A/G (6 h) was 0.9. For the same compound, the ALP (6 h) was 1642.2 IU/L, the ALT (6 h) was 36.2 IU/L and the AST (6 h) was 72.2 IU/L. For the same compound, the BUN (6 h) was 8.6 mg/dL, the CRE (6 h) was 0.2 mg/dL and the Ca (6 h) was 10.6 mg/dL. It also gave a Cl (6 h) of 107.4 meq/L, a DBIL (6 h) of 0.004 mg/dL and a GLC (6 h) of 175.8 mg/dL. The IP (6 h) was 8.9 mg/dL, the K (6 h) was 4.3 meq/L and the LDH (6 h) was 79.4 IU/L. The Na (6 h) was 140.6 meq/L, the PL (6 h) was 139.4 mg/dL and the RALB (6 h) was 2.4 g/dL. The TBIL (6 h) was 0.062 mg/dL, the TC (6 h) was 76 mg/dL and the TG (6 h) was 54.6 mg/dL. For the same compound, the TP (6 h) was 5.2 g/dL, the gamma-GTP (6 h) was 1 IU/L and the TERMINAL_BW (9 h) was 204.4 g. For the same compound, the APTT (9 h) was 17.8 s, the Bas (9 h) was 0% and the Eos (9 h) was 1%. For the same compound, the Fbg (9 h) was 276 mg/dL, the Hb (9 h) was 13.2 g/dL and the Ht (9 h) was 39.8%. For the same compound, the Lym (9 h) was 76%, the MCH (9 h) was 21.7 pg and the MCHC (9 h) was 33.2%. The MCV (9 h) was 65.5 fL, the Mono (9 h) was 2.2% and the Neu (9 h) was 20.8%. The PT (9 h) was 14 s, the Plat (9 h) was 119.5 x10_4/uL and the RBC (9 h) was 608.8 x10_4/ul. The Ret (9 h) was 8.3%, the WBC (9 h) was 84 x10_2/uL and the KIDNEY_L (9 h) was 0.9 g. For the same compound, the KIDNEY_R (9 h) was 0.9 g, the KIDNEY_TOTAL (9 h) was 1.8 g and the LIVER (9 h) was 7.8 g. It also gave an A/G (9 h) of 0.9, an ALP (9 h) of 1417.8 IU/L and an ALT (9 h) of 33.8 IU/L. It also gave an AST (9 h) of 72.2 IU/L, a BUN (9 h) of 7.2 mg/dL and a CRE (9 h) of 0.2 mg/dL. For the same compound, the Ca (9 h) was 10.3 mg/dL, the Cl (9 h) was 109.8 meq/L and the DBIL (9 h) was 0 mg/dL. For the same compound, the GLC (9 h) was 164.4 mg/dL, the IP (9 h) was 9.9 mg/dL and the K (9 h) was 3.9 meq/L. It also gave an LDH (9 h) of 118.2 IU/L, a Na (9 h) of 142.4 meq/L and a PL (9 h) of 137.4 mg/dL. The RALB (9 h) was 2.5 g/dL, the TBIL (9 h) was 0.066 mg/dL and the TC (9 h) was 74.4 mg/dL. The TG (9 h) was 32.4 mg/dL, the TP (9 h) was 5.3 g/dL and the gamma-GTP (9 h) was 1 IU/L. It also gave a TERMINAL_BW (24 h) of 217.7 g, an APTT (24 h) of 20.8 s and a Bas (24 h) of 0%. It also gave an Eos (24 h) of 1%, a Fbg (24 h) of 279.8 mg/dL and a Hb (24 h) of 13.8 g/dL. The Ht (24 h) was 41.1%, the Lym (24 h) was 78.2% and the MCH (24 h) was 21.7 pg. It also gave an MCHC (24 h) of 33.5%, an MCV (24 h) of 64.9 fL and a Mono (24 h) of 2.6%. The Neu (24 h) was 18%, the PT (24 h) was 13.4 s and the Plat (24 h) was 112.6 x10_4/uL. It also gave an RBC (24 h) of 634.2 x10_4/ul, a Ret (24 h) of 6.8% and a WBC (24 h) of 104 x10_2/uL. It also gave a KIDNEY_L (24 h) of 0.9 g, a KIDNEY_R (24 h) of 0.9 g and a KIDNEY_TOTAL (24 h) of 1.9 g. For the same compound, the LIVER (24 h) was 9.6 g, the A/G (24 h) was 0.9 and the ALP (24 h) was 2022.8 IU/L. It also gave an ALT (24 h) of 50 IU/L, an AST (24 h) of 81 IU/L and a BUN (24 h) of 15.4 mg/dL. For the same compound, the CRE (24 h) was 0.2 mg/dL, the Ca (24 h) was 10.7 mg/dL and the Cl (24 h) was 104.6 meq/L. For the same compound, the DBIL (24 h) was 0.006 mg/dL, the GLC (24 h) was 171.6 mg/dL and the IP (24 h) was 7.9 mg/dL. It also gave a K (24 h) of 4.3 meq/L, an LDH (24 h) of 116.2 IU/L and a Na (24 h) of 143 meq/L. For the same compound, the PL (24 h) was 148.2 mg/dL, the RALB (24 h) was 2.6 g/dL and the TBIL (24 h) was 0.056 mg/dL. It also gave a TC (24 h) of 76.4 mg/dL, a TG (24 h) of 83 mg/dL and a TP (24 h) of 5.6 g/dL. For the same compound, the gamma-GTP (24 h) was 1 IU/L.

Reference: ChEMBL document CHEMBL3885861, “Open TG-GATES”
